target: T1, 5-lipoxygenase (Rattus norvegicus, UniProt P12527); assay: In vitro inhibition of 5-lipoxygenase (20,000×g supernatant from homogenized RBL-1 cells, radiolabeled arachidonic acid); type: biochemical; settings: 20,000×g supernatant of RBL-1 cells; triplicate; read-out: IC50 (in vitro inhibitory potency against 5-lipoxygenase)
T1 construct: 20,000×g supernatant from 1.5 million homogenized RBL-1 cells; endogenous in cells; host or cells: RBL-1 cells (20,000×g supernatant of homogenate)
T1 sequence (P12527 1-673): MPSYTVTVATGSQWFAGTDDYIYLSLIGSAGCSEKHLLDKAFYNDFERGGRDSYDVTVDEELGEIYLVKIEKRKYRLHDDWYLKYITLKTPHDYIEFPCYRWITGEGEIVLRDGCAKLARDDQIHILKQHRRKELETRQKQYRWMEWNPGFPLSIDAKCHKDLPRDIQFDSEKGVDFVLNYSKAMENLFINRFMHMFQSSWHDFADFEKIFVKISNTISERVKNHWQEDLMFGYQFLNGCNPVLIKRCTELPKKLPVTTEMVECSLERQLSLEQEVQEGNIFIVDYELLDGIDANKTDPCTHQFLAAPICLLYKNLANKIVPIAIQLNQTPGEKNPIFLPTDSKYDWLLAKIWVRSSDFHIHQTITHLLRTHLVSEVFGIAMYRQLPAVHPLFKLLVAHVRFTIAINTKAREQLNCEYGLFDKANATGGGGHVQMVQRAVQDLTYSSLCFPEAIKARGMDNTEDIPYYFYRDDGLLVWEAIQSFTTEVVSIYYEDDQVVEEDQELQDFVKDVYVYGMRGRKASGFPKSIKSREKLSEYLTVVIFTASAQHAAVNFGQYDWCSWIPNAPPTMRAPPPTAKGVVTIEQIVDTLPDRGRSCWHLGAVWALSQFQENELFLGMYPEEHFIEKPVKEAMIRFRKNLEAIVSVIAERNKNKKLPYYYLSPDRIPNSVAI
Method: Assays to determine 5-lipoxygenase inhibitory activity were performed in […] incubations containing the 20,000×g supernatant from 1.5 million homogenized RBL-1 cells and various concentrations of the test compound. Reactions were initiated by addition of radiolabeled arachidonic acid and terminated by acidification and ether extraction. Reaction products were separated from nonconverted substrate by thin layer chromatography and measured by liquid scintillation spectroscopy. All incubations were performed in triplicate. Inhibition of 5-lipoxygenase activity was calculated as the ratio of the amount of product formed in the presence and absence of inhibitor. IC50 values (concentration of compound producing 50% enzyme inhibition) were calculated by linear regression analysis of percentage inhibition versus log inhibitor concentration plots. (Dyer, R .D.; Haviv, F.; Hanel, A. M.; Bornemier, D. A.; Carter, G. W. Fed. Proc., Fed. Am. Soc. Exp. Biol. 1984, 43, 1462A).

IC50 | Compound
1500 nM | COc1ccc([C@@H]2C[C@H]2CN(O)C(N)=O)cc1 (relative stereo) [Example 60, N-(1-trans-(2-(4-methoxyphenyl)cyclopropyl)methyl)-N-hydroxyurea]
300 nM | NC(=O)N(O)C[C@@H]1C[C@H]1c1cccc(Oc2ccc(OCc3ccccc3)cc2)c1 (relative stereo) [Example 54, N-(1-trans-(2-(3-(4-benzyloxyphenoxy)phenyl)cyclopropyl)-methyl)-N-hydroxyurea]
400 nM | NC(=O)N(O)C[C@@H]1C[C@H]1c1cccc(Oc2ccncc2)c1 (relative stereo) [Example 49, N-(trans-(2-(3-(4-pyridyloxy)phenyl)cyclopropyl)methyl)-N-hydroxyurea]
1400 nM | CN(O)C(=O)[C@@H]1C[C@H]1c1ccccc1 (relative stereo) [Example 31, N-methyl-N-hydroxy-trans-2-phenylcyclopropyl carboxamide]
100 nM | CC(=O)N(O)C(C)[C@@H]1C[C@H]1c1ccc(Br)cc1 (single isomer, unassigned) [Example 44, N-(1-trans-(2-(4-bromophenyl)cyclopropyl)ethyl)-N-hydroxyacetamide]
1000 nM | CC(C)Oc1cccc([C@@H]2C[C@H]2CN(O)C(N)=O)c1 (relative stereo) [Example 64]
130 nM | CC([C@@H]1C[C@H]1c1ccc(OCc2ccccc2)cc1)N(O)C(N)=O (stereo partly drawn) [Example 14, N-(1-trans-(2-(4-(phenylmethoxy)phenyl)cyclopropyl)ethyl)-N-hydroxyurea]
300 nM | CC([C@@H]1C[C@H]1c1ccc2ccccc2c1)N(O)C(N)=O (stereo partly drawn) [Example 45, N-(1-trans-((2-napthyl)cyclopropyl)ethyl)-N-hydroxyurea]
3600 nM | CC(C1CC1c1ccco1)N(O)C(N)=O (stereo not drawn) [Example 65, N-(1-trans-(2-(2-furfuranyl)cyclopropyl)ethyl-N-hydroxyurea]
60 nM | NC(=O)N(O)C[C@@H]1C[C@H]1c1ccc(Oc2ccccc2)cc1 (relative stereo) [Example 36, N-(1-trans-(2-(4-phenoxyphenyl)cyclopropyl)methyl)-N-hydroxyurea]
200 nM | CC([C@@H]1C[C@H]1c1cc2ccccc2s1)N(O)C(N)=O (single isomer, unassigned) [Example 1b, N-(1-trans-(2-(benzo[b]thien-2-yl)cyclopropyl)ethyl)-N-hydroxyurea]
300 nM | CC(=O)N(O)C[C@@H]1C[C@H]1c1ccc(C)cc1 (relative stereo) [Example 46, N-(1-trans-(2-(4-methylphenyl)cyclopropyl)methyl)-N-hydroxyacetamide]
30 nM | CC(=O)N(O)C[C@@H]1C[C@H]1c1ccc(Br)cc1 (relative stereo) [Example 38, N-(1-trans-(2-(4-bromophenyl)cyclopropyl)methyl)-N-hydroxyacetamide]
200 nM | Cc1ccc([C@@H]2C[C@H]2CN(O)C(N)=O)cc1Oc1ccccc1 (relative stereo) [Example 61, N-(1-trans-(2-(4-methyl-3-phenoxyphenyl)cyclopropyl)methyl)-N-hydroxyurea]
300 nM | CC(=O)N(O)C(C)[C@@H]1C[C@H]1c1ccc2ccccc2c1 (stereo partly shown) [Example 57]
200 nM | Cc1cc([C@@H]2C[C@H]2CN(O)C(N)=O)ccc1Oc1ccccc1 (relative stereo) [Example 56, N-(1-trans-(2-(3-methyl-4-phenoxy)phenylcylclopropyl)methyl)-N-hydroxyurea]
200 nM | CNC(=O)N(O)C(C)[C@@H]1C[C@H]1c1cc2ccccc2s1 (stereo partly drawn) [Example 8, N-(1-trans-(2-(benzo[b]thien-2-yl)cyclopropyl)ethyl)-N-hydroxy-N'-methylure]
300 nM | CC(C)c1ccc([C@@H]2C[C@H]2CN(O)C(N)=O)cc1 (relative stereo) [Example 63]
50 nM | NC(=O)N(O)C[C@@H]1C[C@H]1c1ccc(OCc2ccccc2)cc1 (relative stereo) [Example 21, N-(1-trans-(2-(4-(phenylmethoxy)phenyl)cyclopropyl)methyl)-N-hydroxyurea]

— US5120752A, “Cyclopropyl derivative lipoxygenase inhibitors” (Abbott Laboratories, priority 1990, dated 1992)
